Values of other authors in patent EP0882446A1, “Antimicrobial skin cleansing compositions” (GOJO INDUSTRIES,INC., priority 1997, dated 1998).

Assays:
[1] = test system: wide spectrum of bacteria; conditions: against a wide spectrum of bacteria; reported
[2] = at levels below about 3 percent by weight

Cc1cc(O)cc(C)c1Cl [PCMX, 4-chloro-3,5-dimethyl phenol]
antimicrobial activity relative to phenol [1]: 60 times | toxicity and irritation to human skin [2]: non-toxic and non-irritating
